Target: T1, JHDM1A (Homo sapiens, UniProt Q9Y2K7)
T1 sequence (Q9Y2K7 1-517): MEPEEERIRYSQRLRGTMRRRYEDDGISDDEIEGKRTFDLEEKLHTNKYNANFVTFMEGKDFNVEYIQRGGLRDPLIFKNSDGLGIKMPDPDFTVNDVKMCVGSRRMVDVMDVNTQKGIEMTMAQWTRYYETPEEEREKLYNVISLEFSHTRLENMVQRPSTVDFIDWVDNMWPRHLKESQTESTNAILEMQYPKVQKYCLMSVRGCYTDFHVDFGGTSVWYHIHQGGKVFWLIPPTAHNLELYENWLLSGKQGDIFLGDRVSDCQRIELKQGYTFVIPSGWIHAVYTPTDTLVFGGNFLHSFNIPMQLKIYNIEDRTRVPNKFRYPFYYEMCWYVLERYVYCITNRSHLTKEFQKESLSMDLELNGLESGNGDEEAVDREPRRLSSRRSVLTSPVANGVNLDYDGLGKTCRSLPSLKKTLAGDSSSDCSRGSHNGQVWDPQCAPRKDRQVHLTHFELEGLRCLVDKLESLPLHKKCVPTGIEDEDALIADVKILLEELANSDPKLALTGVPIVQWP
Test: FP competitive binding assay with tracer 3 and JHDM1A
Conditions: 60 nM JHDM1A, 1 nM 3, Ni2+ buffer, 4 h

| displacement of tracer 3 from JHDM1A | SMILES |
| --- | --- |
| can displace 3 from JHDM1A | O=C(O)/C=C/C(=O)N(O)CCCCNCc1ccc(COC(=O)Nc2cccc3ccccc23)cc1 [Compound 2, methylstat acid] |
| can displace 3 from JHDM1A | O=C(O)CNC(=O)C(=O)O [NOG, N-oxalyl glycine] |

| SMILES | displacement of tracer 3 from JHDM1A |
| --- | --- |
| O=C(O)CCC(=O)C(=O)O [αKG, α-ketoglutarate] | can displace 3 from JHDM1A |
